From patent US8883841B2, “Oncogenic ras-specific cytotoxic compound and methods of use thereof” (The Board of Regents of the University of Texas System, priority 2005, dated 2014)

Legend:
H460 tumors = test: In vivo antitumor activity, subcutaneous H460 tumors in nude mice
Description: The inventors have investigated the in vivo antitumor activity of Oncrasin compounds, such as Oncrasin-1 and Oncrasin-27, both are available at relatively larger scale. Subcutaneous tumors were established in 4- to 6-week-old female nude mice (Charles River Laboratories Inc., Wilmington, Mass.) by the inoculation of 1.5×10^6 H460 cells into the dorsal flank of each mouse. After the tumors grew to 5 mm in diameter, mice were treated with intraperitoneal injections of Oncrasin-1 (for 10 days) or Oncrasin-27 (for 3 days, because of limited availability of the compound) at a dose of 100 mg/kg/injection daily (the agents were dissolved in 0.5 mL of solvent containing 10% DMSO, 10% Cremophor EL, and 10% ethanol), or they were given intraperitoneal injections of solvent alone. The tumor volumes were calculated using the formula a×b^2×0.5, where a and b represent the larger and smaller diameters, respectively (Gu et al., 2000; Terashi et al., 2005). Mice were killed when the tumors grew to 1.5 cm in diameter. To evaluate the toxicity of treatment, blood samples were collected from the tail vein before treatment and 2 days after the last treatment, and serum alanine transaminase, aspartate transaminase, and creatinine levels were determined as described elsewhere (Gu et al., 2000; Terashi et al., 2005). Hematopoietic toxicity was monitored by counting red blood cells, white blood cells, and platelets (Gu et al., 2002; Terashi et al., 2005). The lung, heart, liver, intestine, spleen, and kidney were harvested after the mice were killed to test the toxic effects of both compounds on these organs. The histopathologic analysis was performed in the histology laboratory of the Department of Veterinary Medicine and Surgery at M. D. Anderson Cancer Center. […] The mean survivals for mice treated with solvent, Oncrasin-1, and Oncrasin-27 were 24, 32, and 34 days, respectively.

T29Kt1 cells = conditions: Table 1; value is the negative log10 of mol/L
H460 cells = test: cells; conditions: Homo sapiens, NCI-H460, read-out: IC50 (−LogM), H460, Lung (converted)
UACC-62 = test: NCI in-vitro testing, UACC-62 (Melanoma)
SK-MEL-5 = test: NCI in-vitro testing, SK-MEL-5 (Melanoma)
SK-MEL-28 = test: NCI in-vitro testing, SK-MEL-28 (Melanoma)
UO-31 = test: NCI in-vitro testing, UO-31 (Renal Cancer)
T-47D = test: NCI in-vitro testing, T-47D (Breast Cancer)
HCT-116 = test: NCI in-vitro testing, HCT-116 (Colon Cancer)
COLO 205 = test: NCI in-vitro testing, COLO 205 (Colon Cancer)
HCC-2998 = test: NCI in-vitro testing, HCC-2998 (Colon Cancer)
HS 578T = test: NCI in-vitro testing, HS 578T (Breast Cancer)
HOP-62 = test: NCI in-vitro testing, HOP-62 (Non-Small Cell Lung Cancer)

Compound: O=Cc1cn(Cc2cccc(Cl)c2)c2ccccc12 [Oncrasin K027, 1-(3-chlorobenzyl)-1H-indole-3-carbaldehyde]
- suppression of growth of tumor volume in comparison with solvent (H460 tumors; 100 mg/kg/injection daily i.p., Oncrasin-1 10 days, Oncrasin-27 3 days): 76.3%
- mean survival (H460 tumors; 100 mg/kg/injection daily i.p., solvent 24 days): 34 days
- mean tumor volume vs solvent-treated mice (H460 tumors; p<0.05, 5 mice per group): differed significantly
- IC50 in T29k cells (T29Kt1 cells): 6.43
- IC50 (H460 cells): 0.00398 µM
- GI50 (UACC-62; Homo sapiens, UACC-62): 0.0451 µM
- CC50 (UACC-62; Homo sapiens, UACC-62, read-out: LC50): 11.4 µM
- TGI (UACC-62; UACC-62): 8.97E−7 Molar
- Percent Growth (UACC-62; UACC-62, Log10 Concentration −4.0 Molar): −94%
- Percent Growth (UACC-62; UACC-62, Log10 Concentration −5.0 Molar): −47%
- Percent Growth (UACC-62; UACC-62, Log10 Concentration −6.0 Molar): −2%
- Percent Growth (UACC-62; UACC-62, Log10 Concentration −7.0 Molar): 35%
- Percent Growth (UACC-62; UACC-62, Log10 Concentration −8.0 Molar): 79%
- GI50 (SK-MEL-5; Homo sapiens, SK-MEL-5): 4.97 µM
- CC50 (SK-MEL-5; Homo sapiens, SK-MEL-5, read-out: LC50): 45.5 µM
- TGI (SK-MEL-5; SK-MEL-5): 1.95E−5 Molar
- Percent Growth (SK-MEL-5; SK-MEL-5, Log10 Concentration −4.0 Molar): −97%
- Percent Growth (SK-MEL-5; SK-MEL-5, Log10 Concentration −5.0 Molar): 40%
- Percent Growth (SK-MEL-5; SK-MEL-5, Log10 Concentration −6.0 Molar): 74%
- Percent Growth (SK-MEL-5; SK-MEL-5, Log10 Concentration −7.0 Molar): 92%
- Percent Growth (SK-MEL-5; SK-MEL-5, Log10 Concentration −8.0 Molar): 95%
- GI50 (SK-MEL-28; Homo sapiens, SK-MEL-28): 18 µM
- CC50 (SK-MEL-28; Homo sapiens, SK-MEL-28, read-out: LC50): > 100 µM
- TGI (SK-MEL-28; SK-MEL-28): 4.44E−6 Molar
- Percent Growth (SK-MEL-28; SK-MEL-28, Log10 Concentration −4.0 Molar): −45%
- Percent Growth (SK-MEL-28; SK-MEL-28, Log10 Concentration −5.0 Molar): 82%
- Percent Growth (SK-MEL-28; SK-MEL-28, Log10 Concentration −6.0 Molar): 93%
- Percent Growth (SK-MEL-28; SK-MEL-28, Log10 Concentration −7.0 Molar): 93%
- Percent Growth (SK-MEL-28; SK-MEL-28, Log10 Concentration −8.0 Molar): 83%
- GI50 (UO-31; Homo sapiens, UO-31): 1.58 µM
- CC50 (UO-31; Homo sapiens, UO-31, read-out: LC50): > 100 µM
- TGI (UO-31; UO-31): 1.55E−6 Molar
- Percent Growth (UO-31; UO-31, Log10 Concentration −4.0 Molar): −42%
- Percent Growth (UO-31; UO-31, Log10 Concentration −5.0 Molar): 10%
- Percent Growth (UO-31; UO-31, Log10 Concentration −6.0 Molar): 50%
- Percent Growth (UO-31; UO-31, Log10 Concentration −7.0 Molar): 80%
- Percent Growth (UO-31; UO-31, Log10 Concentration −8.0 Molar): 90%
- GI50 (T-47D; Homo sapiens, T47D): 0.0267 µM
- CC50 (T-47D; Homo sapiens, T47D, read-out: LC50): > 100 µM
- TGI (T-47D; T-47D): 4.23E−7 Molar
- Percent Growth (T-47D; T-47D, Log10 Concentration −4.0 Molar): −14%
- Percent Growth (T-47D; T-47D, Log10 Concentration −5.0 Molar): −16%
- Percent Growth (T-47D; T-47D, Log10 Concentration −6.0 Molar): −12%
- Percent Growth (T-47D; T-47D, Log10 Concentration −7.0 Molar): 20%
- Percent Growth (T-47D; T-47D, Log10 Concentration −8.0 Molar): 73%
- TGI (HCT-116; HCT-116): 1.06E−5 Molar
- Percent Growth (HCT-116; HCT-116, Log10 Concentration −4.0 Molar): −84%
- Percent Growth (HCT-116; HCT-116, Log10 Concentration −5.0 Molar): 2%
- Percent Growth (HCT-116; HCT-116, Log10 Concentration −6.0 Molar): 10%
- Percent Growth (HCT-116; HCT-116, Log10 Concentration −7.0 Molar): 30%
- Percent Growth (HCT-116; HCT-116, Log10 Concentration −8.0 Molar): 68%
- GI50 (HCT-116; Homo sapiens, HCT-116): 0.0294 µM
- CC50 (HCT-116; Homo sapiens, HCT-116, read-out: LC50): 60.6 µM
- TGI (COLO 205; COLO 205): 1.58E−5 Molar
- Percent Growth (COLO 205; COLO 205, Log10 Concentration −4.0 Molar): −72%
- Percent Growth (COLO 205; COLO 205, Log10 Concentration −5.0 Molar): 18%
- Percent Growth (COLO 205; COLO 205, Log10 Concentration −6.0 Molar): 51%
- Percent Growth (COLO 205; COLO 205, Log10 Concentration −7.0 Molar): 93%
- Percent Growth (COLO 205; COLO 205, Log10 Concentration −8.0 Molar): 88%
- GI50 (COLO 205; Homo sapiens, COLO 205): 1.05 µM
- CC50 (COLO 205; Homo sapiens, COLO 205, read-out: LC50): 5.69 µM
- TGI (HCC-2998; HCC-2998): 2.04E−5 Molar
- Percent Growth (HCC-2998; HCC-2998, Log10 Concentration −4.0 Molar): −97%
- Percent Growth (HCC-2998; HCC-2998, Log10 Concentration −5.0 Molar): 43%
- Percent Growth (HCC-2998; HCC-2998, Log10 Concentration −6.0 Molar): 62%
- Percent Growth (HCC-2998; HCC-2998, Log10 Concentration −7.0 Molar): 86%
- Percent Growth (HCC-2998; HCC-2998, Log10 Concentration −8.0 Molar): 85%
- GI50 (HCC-2998; Homo sapiens, HCC 2998): 4.33 µM
- CC50 (HCC-2998; Homo sapiens, HCC 2998, read-out: LC50): 46.2 µM
- TGI (HS 578T; HS 578T): 2.75E−6 Molar
- Percent Growth (HS 578T; HS 578T, Log10 Concentration −4.0 Molar): −38%
- Percent Growth (HS 578T; HS 578T, Log10 Concentration −5.0 Molar): 30%
- Percent Growth (HS 578T; HS 578T, Log10 Concentration −6.0 Molar): 91%
- Percent Growth (HS 578T; HS 578T, Log10 Concentration −7.0 Molar): 98%
- Percent Growth (HS 578T; HS 578T, Log10 Concentration −8.0 Molar): 105%
- GI50 (HS 578T; Homo sapiens, Hs-578T): 4.68 µM
- CC50 (HS 578T; Homo sapiens, Hs-578T, read-out: LC50): > 100 µM
- TGI (HOP-62; HOP-62): 1.93E−5 Molar
- Percent Growth (HOP-62; HOP-62, Log10 Concentration −4.0 Molar): −37%
- Percent Growth (HOP-62; HOP-62, Log10 Concentration −5.0 Molar): 15%
- Percent Growth (HOP-62; HOP-62, Log10 Concentration −6.0 Molar): 35%
- Percent Growth (HOP-62; HOP-62, Log10 Concentration −7.0 Molar): 87%
- Percent Growth (HOP-62; HOP-62, Log10 Concentration −8.0 Molar): 91%
- GI50 (HOP-62; Homo sapiens, HOP-62): 0.35 µM
- CC50 (HOP-62; Homo sapiens, HOP-62, read-out: LC50): > 100 µM
